Results: ChEMBL document CHEMBL1221217 (Nat Chem Biol, 2008)
Calls of active or inactive are those of the source. No cut-off for these calls is given here.

Assays:
[1] = target: Potassium voltage-gated channel subfamily A member 1 (Rattus norvegicus) (UniProt P10499); assay: Activation of KV1.1 expressed in Xenopus laevis oocytes coexpressing Kvbeta1 W155A mutant assessed as increase in steady state current normalized to initial inactivating current at 500 uM by electrophysiology method; conditions: Oocyte
[2] = target: Voltage-gated potassium channel subunit beta-2 (Rattus norvegicus) (UniProt P62483); assay: Binding affinity to Kvbeta2 assessed as reduction of fluorescence by NADPH fluorescence spectrum based assay; design: scale not given: the % may be the effect or the level left
[3] = Induction of dissociation of KV1.1 T1 domain/rat Kvbeta2 I211R mutant complex at 2 mM by solid phase binding assay
[4] = Induction of dissociation of KV1.1 T1 domain/rat Kvbeta2 complex by solid phase binding assay
[5] = target: Potassium voltage-gated channel subfamily A member 1 (Rattus norvegicus) (UniProt P10499); assay: Activation of KV1.1 expressed in Xenopus laevis oocytes coexpressing Kvbeta1 assessed as increase in steady state current normalized to initial inactivating current by electrophysiology method
[6] = target: Potassium voltage-gated channel subfamily A member 1 (Rattus norvegicus) (UniProt P10499); assay: Activation of KV1.1 expressed in Xenopus laevis oocytes assessed as increase in steady state current normalized to initial inactivating current by electrophysiology method; conditions: Oocyte
[7] = target: Potassium voltage-gated channel subfamily A member 1 (Rattus norvegicus) (UniProt P10499); assay: Activation of KV1.1 expressed in Xenopus laevis oocytes coexpressing Kvbeta1 assessed as increase in channel current at 500 uM by electrophysiology method; conditions: Oocyte
[8] = target: Potassium voltage-gated channel subfamily A member 1 (Rattus norvegicus) (UniProt P10499); assay: Activation of KV1.1 expressed in Xenopus laevis oocytes coexpressing Kvbeta1 assessed as increase in steady state current normalized to initial inactivating current at 500 uM by electrophysiology method; conditions: Oocyte

Sequence of Potassium voltage-gated channel subfamily A member 1 (Rattus norvegicus) (P10499 whole entry, looked up): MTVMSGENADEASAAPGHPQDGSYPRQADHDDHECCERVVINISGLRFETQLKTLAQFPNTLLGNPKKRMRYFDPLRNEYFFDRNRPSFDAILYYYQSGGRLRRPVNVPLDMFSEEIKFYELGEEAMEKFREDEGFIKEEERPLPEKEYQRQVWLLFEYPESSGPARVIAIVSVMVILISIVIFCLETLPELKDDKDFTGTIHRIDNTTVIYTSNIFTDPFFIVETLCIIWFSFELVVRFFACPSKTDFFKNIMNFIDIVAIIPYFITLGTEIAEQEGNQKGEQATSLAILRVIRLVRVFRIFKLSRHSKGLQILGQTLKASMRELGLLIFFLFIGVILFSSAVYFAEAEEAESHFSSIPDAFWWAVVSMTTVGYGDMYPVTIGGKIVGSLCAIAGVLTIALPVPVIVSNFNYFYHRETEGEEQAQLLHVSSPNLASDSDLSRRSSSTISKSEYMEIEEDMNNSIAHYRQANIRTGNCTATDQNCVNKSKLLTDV
Sequence of Voltage-gated potassium channel subunit beta-2 (Rattus norvegicus) (P62483 whole entry, looked up, the tested form may be a part): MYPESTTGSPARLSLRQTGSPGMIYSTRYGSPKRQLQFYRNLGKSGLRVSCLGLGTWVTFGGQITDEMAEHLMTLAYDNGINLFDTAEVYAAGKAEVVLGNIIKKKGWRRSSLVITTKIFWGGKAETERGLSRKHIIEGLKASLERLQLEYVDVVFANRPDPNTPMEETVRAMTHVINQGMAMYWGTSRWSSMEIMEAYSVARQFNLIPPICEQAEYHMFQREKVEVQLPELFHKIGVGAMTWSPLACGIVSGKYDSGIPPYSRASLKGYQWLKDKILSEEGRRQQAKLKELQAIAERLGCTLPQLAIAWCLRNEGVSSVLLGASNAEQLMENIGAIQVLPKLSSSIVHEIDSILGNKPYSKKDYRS

Activity [1]: 93%
Activity [2]: 21%
Activity [3]: inactive
EC50 [4]: 68 µM
EC50 [5]: 46 µM
Activity [6]: 4.5%
Activity [7]: Active
Activity [8]: 84%
Structure (SMILES): C[C@]12CCC(=O)C=C1CC[C@@H]1[C@@H]2C(=O)C[C@@]2(C)[C@H]1CC[C@]2(O)C(=O)CO [CORTISONE]
